Where a name gives a salt, the structure may show the parent alone. Read-outs that look alike come from different tables or passages of the source.
Molecular target: T1, m1 muscarinic receptor (Rattus norvegicus, UniProt P08482)
T1 construct: expressed in transfected cells; host or cells: A9 L cells (mouse fibroblast line)
T1 sequence (P08482 1-460): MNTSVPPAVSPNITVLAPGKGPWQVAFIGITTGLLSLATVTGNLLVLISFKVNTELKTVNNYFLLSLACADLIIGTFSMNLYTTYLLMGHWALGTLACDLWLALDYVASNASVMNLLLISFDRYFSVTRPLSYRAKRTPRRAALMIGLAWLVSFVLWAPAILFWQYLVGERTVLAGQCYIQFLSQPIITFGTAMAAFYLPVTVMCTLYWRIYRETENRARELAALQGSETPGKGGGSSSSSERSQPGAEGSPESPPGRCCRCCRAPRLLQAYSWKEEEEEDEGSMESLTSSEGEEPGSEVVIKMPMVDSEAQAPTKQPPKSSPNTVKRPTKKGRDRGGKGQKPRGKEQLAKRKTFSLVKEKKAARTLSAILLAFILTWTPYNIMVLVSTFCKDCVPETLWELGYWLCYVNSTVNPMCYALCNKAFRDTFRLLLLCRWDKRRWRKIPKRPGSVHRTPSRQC
Test: IP hydrolysis in A9 L cells cloned with the genetic m1 muscarinic receptor
Assay type: cell-based, human and rat
Conditions: for EC50: IP hydrolysis, seven point curves, three separate experiments; for % PI (efficacy) / Emax: percentage of total [3H]IP accumulated in the presence of 100 µM carbachol stimulation, 37°C for 45 min; for Emax: A9L-m1, 0.75 h, read-out: % PI (efficacy)
Method: IP hydrolysis in A9 L cells cloned with the genetic m, muscarinic receptor: A9 L cells transfected with human and rat m, muscarinic receptors (Dörje et al., 1991; Jones et al., 1988), were cultured to confluence in 75-ml flasks containing Dulbecco's modified essential media. Cells were prelabeled with 1 µCi/ml of myo(2-[^3H]inositol (Amersham Inc., 16.3 Ci/mmol) for 48 hr before assaying. On the day of assay, cells were detached using a 30-sec exposure to 0.25% trypsin in 1 mM EDTA. The cells were collected by centrifugation (300 x g for 5 min) and resuspended in oxygenated HEPES buffer containing 10 mM LiCl (NaCl 142 mM, KCl 5.6 mM, CaCl2 2.2 mM, MgCl2 1 mM, NaHCO3 3.6 mM, D-glucose 5.6 mM and Na^+ HEPES 30 mM, pH 7.4). Cells were incubated at 37°C for 45 min in the presence of varying concentrations of test compounds. Total IP hydrolysis was determined using the method of Schoepp and Johnson (1988). […] Half-maximal (EC50) values were determined from the mean (±S.D.) of seven point curves determined from three separate experiments.

Row | SMILES | EC50 (EC50, nM) [nM] | EC50 (read-out: EC50) [nM] | % PI (efficacy) [%] | Emax [%] | % PI (efficacy) (45 min) [%]
1 | O=C1CCCN1CC#CCN1CCCC1 [oxotremorine, reference compound] | 16300 | – | – | – | –
2 | C(#Cc1ccsc1)COc1nsnc1[C@@H]1CN2CCC[C@H]1C2.O=C(O)C(O)C(O)C(=O)O [Compound 30, Endo (5R,6S)-6-(3-[3-(3-Thienyl)-2-propyn-1-yloxy]-1,2,5-thiadiazol-4-yl)-1-azabicyclo[3.2.1]octane, (+)-tartrate] | – | 20 | 82 | – | –
3 | CC(C#Cc1ccsc1)Oc1nsnc1[C@H]1CN2CCC[C@H]1C2 (stereo partly drawn) [Compound 48, Exo (5R,6R)-6-(3-(3-(3-Thienyl)-1-methyl-2-propyn-1-yloxy)-1,2,5-thiadiazol-4-yl)-1-azabicyclo[3.2.1]octane, (+)-tartrate] | – | 7 | – | 96 | –
4 | Fc1ccc(C#CCOc2nsnc2C2CN3CCC2CC3)cc1 (racemic) [Compound 54, (+-) 3-(3-(3-(4-Fluorophenyl)-2-propyn-1-yloxy)-1,2,5-thiadiazol-4-yl)-1-azabicyclo[2.2.2]octane, oxalate] | – | 224 | – | – | –
5 | CC(C)C(C#Cc1ccsc1)Oc1nsnc1C1CN2CCC1C2 (mixture of isomers) [Compound 16, Exo (+-) 3-(3-(1-(3-Thienyl)-4-methyl-1-pentyn-3-yloxy)-1 ,2,5-thiadiazol-4-yl)-1-azabicyclo[2.2.1]heptane, (+)-tartrate] | – | 14 | – | 56 | –
6 | C(#Cc1ccccc1)COc1nsnc1[C@H]1CN2CC[C@@H]1C2 (single isomer, unassigned) [Compound 11, Endo (β)-3-(3-(3-Phenyl-2-propyn-1-yloxy)-1,2,5-thiadiazol-4-yl)-1-azabicyclo[2.2.1]heptane, (+)-tartrate] | – | 98 | – | 64 | –
7 | C(#Cc1cccs1)COc1nsnc1[C@H]1CN2CC[C@@H]1C2 (single isomer, unassigned) [Compound 8, Endo (α)-3-(3-(3-(2-Thienyl)-2-propyn-1-yloxy)-1,2,5-thiadiazol-4-yl)-1-azabicyclo[2 2 1]heptane. (+)-tartrate] | – | 670 | – | 91 | –
8 | COc1cccc(C#CC(C)Oc2nsnc2[C@H]2CN3CCC[C@H]2C3)c1 (stereo partly drawn) [Compound 43, Exo (5R,6R)-6-(3-(3-(3-Methoxyphenyl)-1-methyl-2-propyn-1-yloxy)-1,2,5-thiadiazol-4-yl)-1-azabicyclo[3.2.1]octane, (+)-tartrate] | – | 9 | – | 85 | –
9 | COc1cccc(C#CCOc2nsnc2[C@H]2CN3CCC[C@H]2C3)c1 [Compound 41, Exo (5R,6R)-6-(3-(3-(3-Methoxyphenyl)-2-propyn-1-yfoxy)-1,2,5-thiadiazol-4-yl)-1-azabicyclo[3.2.1]octane, oxalate] | – | 2 | – | 100 | –
10 | C(#Cc1ccsc1)CSc1nsnc1[C@@H]1CN2CCC[C@H]1C2 [Compound 24, Endo (5R,6S)-6-(3-(3-(3-Thienyl)-2-propyn-1-ylthio)-1,2,5-thiadiazol-4-yl)-1-azabicyclo[3.2.1]octane, (+)-tartrate] | – | 300 | – | 105 | –
11 | COc1cccc(C#CC(Oc2nsnc2[C@H]2CN3CCC[C@H]2C3)C(C)C)c1 (stereo partly drawn) [Compound 45, Exo (5R,6R)-6-(3-(1-(3-Methoxyphenyl)-4-methyl-1-pentyn-3-yloxy)-1,2,5-thiadiazol-4-yl)-1-azabicyclo[3 2.1]octane, (+)-tartrate] | – | 8 | – | 66 | –
12 | C(#Cc1ccccc1)COc1nsnc1[C@H]1C[N@@]2CCC[C@H]1C2 [Compound 40, Exo (5R,6R)-6-(3-(3-Phenyl-2-propyn-1-yloxy)-1,2,5-thiadiazol-4-yl)-1-azabicyclo[3.2.1]octane, oxalate] | – | 0.5 | – | 102 | –
13 | C(#Cc1ccccc1)COc1nsnc1[C@@H]1CN2CCC[C@H]1C2 [Compound 26, Endo (5R,6S)-6-(3-(3-Phenyl-2-propyn-1-yloxy)-1,2,5-thiadiazol-4-yl)-1-azabicyclo[3 2 1]octane, (+)-tartrate] | – | 280 | – | 93 | –
14 | C(#Cc1ccccc1)CSc1nsnc1[C@H]1C[N@@]2CCC[C@H]1C2 [Compound 39, Exo (5R,6R)-6-(3-(3-Phenyl-2-propyn-1-ylthio)-1,2,5-thiadiazol-4-yl)-1-azabicyclo[3.2.1]octane. (+)-tartrate] | – | 0.2 | – | 105 | –
15 | C(#Cc1ccccc1)COc1nsnc1C1CN2CCC1C2 (racemic) [Compound 13, Exo (+-) 3-(3-(3-Phenyl-2-propyn-1-yloxy)-1.2.5-thiadlazol-4-yl)-1-azabicyclo[2 2.1]heptane, (+)-tartrate] | – | 0.7 | – | 100 | –
16 | Fc1ccc(C#CCOc2nsnc2[C@H]2CN3CC[C@@H]2C3)cc1 (single isomer, unassigned) [Compound 9, Endo (β)-3-(3-(3-(4-Fluorophenyl)-2-propyn-1-yloxy)-1.2.5-thiadiazol-4-yl)-1-azabicyclo[2 2.1]heptane, (-)-tartrate] | – | 38 | – | – | 68
17 | C(#Cc1ccsc1)COc1nsnc1[C@H]1CN2CCC[C@H]1C2 [Compound 50, Exo (5R,6R)-6-(3-[3-(3-Thienyl)-2-propyn-1-yloxy]-1,2,5-thiadiazol-4-yl)-1-azabicyclo[3.2.1]octane, oxalate] | – | 2 | – | 101 | –
18 | Fc1cccc(C#CCSc2nsnc2[C@@H]2CN3CCC[C@H]2C3)c1 [Compound 21, Endo (5R,6S)-6-(3-(3-(3-Fluorophenyl)-2-propyn-1-ylthio)-1,2,5-thiadiazol-4-yl)-1-azabicyclo[3.2.1]octane, (+)-tartrate] | – | 105 | – | 67 | –
19 | C(#Cc1ccccc1)COc1nsnc1[C@H]1CN2CC[C@@H]1C2 (racemic) [Compound 1, Endo (+-) 3-(3-(3-Phenyl-2-propyn-1-yloxy)-1,2,5-thiadiazol-4-yl)-1-azabicyclo[2 2.1]heptane,(+)--tartrate] | – | 210 | – | 80 | –
20 | Fc1ccc(C#CCOc2nsnc2[C@H]2CN3CC[C@@H]2C3)cc1 (single isomer, unassigned) [Compound 3, Endo (α)-3-(3-(3-(4-Fluorophenyl)-2-propyn-1-yloxy)-1.2.5-thiadiazol-4-yl)-1-azabicyclo[2.2.1]heptane.(+)-tartrate] | – | 95 | – | 81 | –
21 | C(#Cc1ccccc1)COc1nsnc1[C@H]1CN2CC[C@@H]1C2 (single isomer, unassigned) [Compound 4, Endo (α)-3-(3-(3-Phenyl-2-propyn-1-yloxy)-1,2,5-thiadiazol-4-yl)-1-azabicyclo[2.2.1]heptane, (+)-tartrate] | – | 159 | – | – | 77
22 | Fc1ccc(C#CCOc2nsnc2[C@@H]2CN3CCC[C@H]2C3)cc1 [Compound 27, Endo (5R,6S)-6-(3-(3-(4-Fluorophenyl)-2-propyn-1-yloxy)-1,2,5-thiadiazol-4-yl)-1-azabicyclo[3.2.1]octane, (+)-tartrate] | – | 187 | – | 79 | –
23 | CC(C#Cc1cccs1)Oc1nsnc1[C@H]1CN2CCC[C@H]1C2 (stereo partly drawn) [Compound 47, Exo (5R,6R)-6-(3-(3-(2-Thienyl)-1-methyl-2-propyn-1-yloxy)-1,2,5-thiadiazol-4-yl)-1-azabicyclo[3.2.1]octane, (+)-tartrate] | – | 102 | – | 102 | –
24 | Clc1ccc(C#CCOc2nsnc2[C@H]2CN3CCC[C@H]2C3)cc1 [Compound 44, Exo (5R,6R)-6-(3-(3-(4-Chlorophenyl)-2-propyn-1-yloxy)-1,2,5-thiadiazol-4-yl)-1-azabicyclo[3.2.1]octane, (+)-tartrate] | – | 32 | – | 81 | –
25 | C(#Cc1cccs1)CSc1nsnc1[C@@H]1CN2CCC[C@H]1C2 [Compound 25, Endo (5R,6S)-6-(3-(3-(2-Thienyl)-2-propyn-1-ylthio)-1,2,5-thiadiazol-4-yl)-1-azabicyclo[3.2.1]octane, (+)-tartrate] | – | 210 | – | 69 | –
26 | FC(F)(F)c1cccc(C#CCOc2nsnc2[C@H]2CN3CCC[C@H]2C3)c1 [Compound 42, Exo (5R,6R)-6-(3-(3-(3-Trifluoromethylphenyl)-2-propyn-1-yloxy)-1,2,5-thiadiazol-4-yl)-1-azabicyclo[3.2.1]octane, (+)-tartrate] | – | 12 | – | 99 | –
27 | COc1cccc(C#CCOc2nsnc2[C@@H]2CN3CCC[C@H]2C3)c1 [Compound 28, Endo (5R,6S)-6-(3-(3-(3-Methoxyphenyl)-2-propyn-1-yloxy)-1,2,5-thiadiazol-4-yl)-1-azabicyclo[3.2.1]octane, (+)-tartrate] | – | 22 | – | 97 | –
28 | C(#Cc1ccsc1)COc1nsnc1[C@H]1CN2CC[C@@H]1C2 (single isomer, unassigned) [Compound 7, Endo (α)-3-(3-[3-(3-Thienyl)-2-propyn-1-yloxy]-1,2,5-thiadiazol-4-yl)-1-azabicyclo[2.2 1]heptane, (+)-tartrate] | – | 380 | – | 108 | –
29 | C(#Cc1cccnc1)COc1nsnc1[C@@H]1CN2CCC[C@H]1C2 [Compound 31, Endo (5R,6S)-6-(3-[3-(3-Pyridyl)-2-propyn-1-yloxy]-1,2,5-thiadiazol-4-yl)-1-azabicyclo[3.2.1]octane, (+)-tartrate] | 26 | – | – | – | –
